Measured values reported in US20090325959A1 (priority 2008, published 2009).
pIC50, pKi: −log10 of the molar value. Like-named read-outs stand apart in the source and are kept apart here.

Tests used:
[1] = test system: ova-sensitized, ova-challenged mice; test: Prevention of airway hyperreactivity (Penh, methacholine) in mouse ovalbumin sensitization model; format: in vivo; settings: for log10AUC (Penh): days 27 to 31
Description: The anti-inflammatory dosing paradigm consists of dosing the animals once a day starting on day 27 and finishing on either day 30 or 31 (1 hr prior to the aerosolized ovalbumin challenges on days 28 to 30) but not on day 32 when hyperreactivity evaluation occurs. […] Exposure to the methacholine doses consisted of a 3 minute period during which a nebulizer was aerosolizing the methacholine and an additional 3 minute period following the cessation of nebulization. […] Enhanced pause (Penh), a unitless index of airway hyperreactivity, is derived from the expiratory side of the respiratory waveform measured via the plethysmograph and is used as an indirect measure of airway resistance and hyperreactivity. […] Following the methacholine dose response, BALF was collected and all animals were anesthetized, bled and euthanized. […] The Penh value at each of the dose levels of methacholine represents the 6-minute average response. Change from baseline (CFB) in Penh was calculated at each methacholine dose and the area under the curve (AUC) for these CFB values was calculated using the trapezoidal rule. This same approach was applied for each mouse across multiple experiments. […] Data from equal experimental conditions across experiments performed on different days were pooled for statistical analysis and data reporting. […] A random intercept for each experiment was assumed to account for possible similarities of the results obtained from a given experiment (i.e., as a “blocking effect”). […] For FIG. 9, linear AUC values from compound treated mice were reported as a percent of linear AUC values from vehicle-treated ovalbumin-sensitized/ovalbumin-challenged (asthmatic) mice.

human neutrophils = test: Human neutrophil chemotaxis induced by fMLP (modified Boyden chamber); format: cell-based; settings: Neutrophil, 1 h, 1 μM fMLP challenge, one hour, read-out: Chemotaxis Avg. IC50
Description: This assay is an in vitro assay of neutrophil chemotaxis that can be used to evaluate the ability of Rho Kinase inhibitor compounds of Formula I or II to inhibit the migration of human neutrophils, an inflammatory cell that has been implicated in the pathophysiology of allergic conjunctivitis.
Peripheral blood from healthy human volunteers was collected and the neutrophils were isolated by Ficoll-paque density centrifugation followed by dextran sedimentation and hypotonic lysis of the red blood cells. Neutrophil chemotaxis was assessed using a modified Boyden Chamber (Neuroprobe, 96-well) with a 3 μm pore polycarbonate membrane. The ability of the tested compounds to block chemotaxis induced by a 1 μM fMLP challenge during a one hour incubation at 37° C. with 5% CO2 was assessed in a dose response manner.

ROCK2 = target: T1, ROCK2 (Homo sapiens, UniProt O75116); test: Rho kinase inhibition assay (IMAP fluorescence polarization), ROCK2; format: biochemical;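 also: kinase reaction started with 10 µM ATP and run 60 min at room temperature, then phosphorylated substrate captured on IMAP beads for 30 min and fluorescence polarization read in mP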
T1 construct: purchased Upstate/Chemicon 14-451
Description: (§2) Following the pre-incubation, 10 μM ATP was added to initiate the reaction. After 60 minutes at room temperature, Molecular Devices IMAP™ binding solution was added to bind phosphorylated substrate. After 30 minutes of incubation in the presence of the IMAP™ beads, the fluorescence polarization was read and the ratio was reported as mP. IC50 values for compounds and EC50 values for ATP were calculated using the Prism software from Graphpad.

[2] = Compound plasma concentrations in unsensitized mice at 15 min post administration; format: in vivo; settings: mouse, 15 μmol/kg; mean compound plasma concentration in mice at 15 minutes post oral administration; read-out: Mouse Oral PK
Akt3 human enzyme = target: T2, Akt3 human enzyme (Homo sapiens, UniProt Q9Y243); test: Akt3 inhibition assay (IMAP FP); format: biochemical;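 also: kinase reaction run 60 min at room temperature after 30 µM ATP start, phosphorylated substrate captured on IMAP beads and read as fluorescence polarization (mP)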
T2 construct: purchased Upstate Chemicon 14-502

p70S6K human enzyme = target: T3, p70S6K human enzyme (Homo sapiens, UniProt P23443, T412E); test: p70S6K inhibition assay (IMAP FP); format: biochemical;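 also: kinase reaction run at room temperature, phosphorylated substrate captured on IMAP beads and read as fluorescence polarization in mP, IC50 then converted to Ki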
T3 construct: purchased Upstate Chemicon 14-486

ROCK1 = target: T4, ROCK1 (Homo sapiens, UniProt Q13464); test: Rho kinase inhibition assay (IMAP fluorescence polarization), ROCK1; format: biochemical;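 also: kinase reaction run 60 min at room temperature, then phosphorylated substrate captured on IMAP beads for 30 min, with fluorescence polarization read in mP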
T4 construct: purchased Upstate/Chemicon 14-601
Description: as §2

human monocytes = test: Human monocyte cytokine secretion assay (LPS-stimulated); format: cell-based; settings: average percent of stimulated IL-6 secretion from human monocytes at 10 μM of test compound
Description: Peripheral blood from healthy human volunteers was collected and the monocytes isolated via Ficoll-paque density centrifugation. […] The cells were allowed to pre-incubate with test compound at the indicated concentration for 30 minutes (37° C., 5% CO2, humidified air); after which the supernatant was removed and media containing compound and 1 ng/mL LPS was added. Cells were allowed to incubate with compounds and LPS for 4 hours at 37° C. after which the supernatant was removed and stored at −80° C. Cytokine concentrations in the supernatant were determined using commercially available Bio-Rad Bio-plex™ kits according the manufacturer's instructions.

NIH/3T3 cells = test: NIH/3T3 cell morphology assay (actin cytoskeleton disruption); format: cell-based; settings: score 0 (no effect) to 4 (complete disruption) of the actin cytoskeleton; 60 minutes
Description: NIH/3T3 cells were grown in DMEM-H containing glutamine and 10% Colorado Calf Serum. Cells were passaged regularly prior to reaching confluence. Eighteen to 24 hours prior to experimentation, the cells were plated onto Poly-L-Lysine-coated glass bottom 24-well plates. On the day of experimentation, the cell culture medium was removed and was replaced with the same medium containing from 10 nM to 25 μM of the test compound, and the cells were incubated for 60 minutes at 37° C. The culture medium was then removed and the cells were washed with warmed PBS and fixed for 10 minutes with warmed 4% paraformaldehyde. The cells were permeabilized with 0.5% Triton-X, stained with TRITC-conjugated phalloidin and imaged using a Nikon Eclipse E600 epifluorescent microscope to determine the degree of actin disruption. Results were expressed as a numerical score indicating the observed degree of disruption of the actin cytoskeleton at the test concentration, ranging from 0 (no effect) to 4 (complete disruption), and were the average of at least 2 determinations.

IRAK1 = target: T5, IRAK1 (Homo sapiens, UniProt P51617); test: Kinase panel screen (KinaseProfiler), IRAK1; format: biochemical; settings: 10 μM ATP
T5 construct: purchased Upstate, Millipore Bioscience Division (KinaseProfiler service)
Description: (§1) Compounds of Formulae I and II were examined for activity against a selected panel of kinases using the KinaseProfiler™ enzyme profiling services (Upstate, Millipore Bioscience Division). Percent kinase activity at 10 μM and 1 μM test compound and 10 μM ATP was determined against 40 wild-type recombinant human kinases according to Upstate's standard protocol: ASK1, BTK, CSK, c-RAF, GCK, GSK3β, IKKα, IKKβ, IRAK1, IRAK4, JNK1α1, JNK2α2, JNK3, ERK1, ERK2, MAPKAP-K2, MAPKAP-K3, MEK1, MKK4, MKK6, MKK7β, Mnk2, MSK1, PAK3, PDK1, PRAK, ROCK1, Rsk2, SAPK2a, SAPK2b, SAPK3, SAPK4, SRPK1, SRPK2, Syk, TAK1, TBK1, PI3-Kβ, PI3-Kγ, PI3-Kδ.

ERK1 = target: T6, ERK1 (Homo sapiens, UniProt P27361); test: Kinase panel screen (KinaseProfiler), ERK1; format: biochemical
T6 construct: purchased Upstate, Millipore Bioscience Division (KinaseProfiler service)
Description: as §1

GCK = target: T7, GCK (Homo sapiens, UniProt Q12851); test: Kinase panel screen (KinaseProfiler), GCK; format: biochemical
T7 construct: purchased Upstate, Millipore Bioscience Division (KinaseProfiler service)
T7 sequence (Q12851 1-820): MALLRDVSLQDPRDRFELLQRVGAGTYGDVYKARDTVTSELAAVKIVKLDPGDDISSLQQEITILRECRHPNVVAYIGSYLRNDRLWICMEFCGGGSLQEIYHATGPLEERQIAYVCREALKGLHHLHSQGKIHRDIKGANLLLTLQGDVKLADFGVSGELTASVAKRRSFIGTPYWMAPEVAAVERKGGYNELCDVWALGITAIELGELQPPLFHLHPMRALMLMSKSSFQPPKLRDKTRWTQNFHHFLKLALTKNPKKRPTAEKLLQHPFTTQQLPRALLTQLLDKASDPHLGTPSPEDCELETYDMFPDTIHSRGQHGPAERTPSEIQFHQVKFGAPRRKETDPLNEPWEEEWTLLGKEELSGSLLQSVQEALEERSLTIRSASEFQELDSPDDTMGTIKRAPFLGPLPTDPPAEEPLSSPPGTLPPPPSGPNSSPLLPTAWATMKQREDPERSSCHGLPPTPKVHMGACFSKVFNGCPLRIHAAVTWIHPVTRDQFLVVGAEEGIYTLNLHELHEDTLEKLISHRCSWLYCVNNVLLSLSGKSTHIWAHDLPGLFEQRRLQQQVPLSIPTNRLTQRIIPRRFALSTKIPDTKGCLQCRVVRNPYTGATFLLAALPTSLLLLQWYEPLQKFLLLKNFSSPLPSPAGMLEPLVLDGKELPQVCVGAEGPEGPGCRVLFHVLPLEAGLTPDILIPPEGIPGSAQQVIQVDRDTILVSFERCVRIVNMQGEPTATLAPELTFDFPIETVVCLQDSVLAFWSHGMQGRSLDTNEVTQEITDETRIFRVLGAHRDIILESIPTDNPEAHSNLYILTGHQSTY
Description: as §1

ERK2 = target: T8, ERK2 (Homo sapiens, UniProt P28482); test: Kinase panel screen (KinaseProfiler), ERK2; format: biochemical
T8 construct: purchased Upstate, Millipore Bioscience Division (KinaseProfiler service)
Description: as §1

Mnk2 = target: T9, Mnk2 (Homo sapiens, UniProt Q9HBH9); test: Kinase panel screen (KinaseProfiler), Mnk2; format: biochemical; settings: 10 μM ATP
T9 construct: purchased Upstate, Millipore Bioscience Division (KinaseProfiler service)
Description: as §1

[3] = test system: A-10 rat thoracic aorta cells; test: PDGF-stimulated smooth muscle cell proliferation assay (BrdU incorporation); format: cell-based; settings: A-10 cells, 10 ng/mL PDGF, BrdU incorporation, percent of total challenge-stimulated proliferation;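 also: cells kept in serum-free medium, BrdU allowed to incorporate for 24 h, then incorporated label detected fluorometrically with an anti-BrdU antibody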
Description: Effects on cell proliferation were measured using a bromodeoxyuridine (BrdU) incorporation assay. […] Serum free media containing 01% BSA was added to the cells. 24 hours later the media was removed and replaced with warmed serum free media. […] Proliferation was then monitored using the BrdU Cell Proliferation Assay, HTS (Calbiochem cat. #t HTS01). BrdU was allowed to incorporate into cells for 24 hours prior to the addition of fixative/denaturing solution and the fluorometric detection of incorporated BrdU using a BrdU antibody as per manufacturer's directions. Data are reported as a percent of the PDGF-stimulated BrdU incorporation.

[4] = Rat oral pharmacokinetics (plasma); format: in vivo; settings: 20-30 μmol/kg
Description: Plasma (EDTA K2 anticoagulant) was collected from male, cannulated, CD Sprague Dawley rats to determine the pharmacokinetics of formulations containing compound inhibitors of Rho kinase. Each animal was dosed orally with a 4 ml/kg solution or suspension of each test compound in 10 mM acetate buffered saline, pH 4.5 at a final concentration range of 20-30 μmol/kg. Blood was collected at 0.25, 0.5, 1, 2, 4, 6, 8, and 24 hours. Plasma samples were assayed for the concentration of the test compound using an on-line, solid phase extraction LC/MS/MS analysis system.
Samples were analyzed on a QSTAR Elite, hybrid quadrupole time-of-flight mass spectrometer (Applied Biosystems, Framingham, Mass.) coupled with a Symbiosis Pharma integrated, on-line SPE-HPLC system (Spark Holland Inc., Plainsboro, N.J.). Analyst QS 2.0 software was used for instrument control, data acquisition and processing. […] Mobile Phase A consisted of 0.1% ammonium hydroxide in water and Mobile Phase B consisted of 0.1% formic acid in acetonitrile. Pharmacokinetic analyses were performed using WinNonlin software version 5.2 (Pharsight Corporation, Mountain View, Calif.).
As determined from the plasma concentration versus time curves, the time to peak and peak exposure are represented by the values Tmax and Cmax, respectively. The AUC values (nM*hr) shown were calculated as the areas under the plasma concentration versus time curves from time zero through the time of the last observable value and represent the total exposure of the compound over the course of the study. Half-life values or the amount of time required for the plasma levels of the compound to decline to half the initial value are represented as t½.

[5] = 10 μM ATP, read-out: ROCK2 Ki, Avg
[6] = 30 μM ATP, Ki=IC50/(1+([ATP Challenge]/EC50 ATP)), read-out: Akt3 Ki, Avg
[7] = 30 μM ATP, Ki=IC50/(1+([ATP Challenge]/EC50 ATP)), read-out: p70S6K Ki, Avg
[8] = average Ki, read-out: p70S6K Ki

T3 sequence (P23443 1-421 T412E limits assumed): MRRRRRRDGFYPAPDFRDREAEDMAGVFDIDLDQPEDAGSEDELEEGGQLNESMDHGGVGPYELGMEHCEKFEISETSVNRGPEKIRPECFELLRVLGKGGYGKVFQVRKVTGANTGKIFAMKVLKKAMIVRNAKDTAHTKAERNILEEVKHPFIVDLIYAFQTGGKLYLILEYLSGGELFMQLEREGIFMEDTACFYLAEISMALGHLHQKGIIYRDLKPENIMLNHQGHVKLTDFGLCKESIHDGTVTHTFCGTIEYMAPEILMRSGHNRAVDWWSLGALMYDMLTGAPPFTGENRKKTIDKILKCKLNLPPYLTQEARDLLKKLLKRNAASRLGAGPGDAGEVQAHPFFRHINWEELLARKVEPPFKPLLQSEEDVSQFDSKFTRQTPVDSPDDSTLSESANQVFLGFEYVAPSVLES
T1 sequence (O75116 11-552 limits assumed): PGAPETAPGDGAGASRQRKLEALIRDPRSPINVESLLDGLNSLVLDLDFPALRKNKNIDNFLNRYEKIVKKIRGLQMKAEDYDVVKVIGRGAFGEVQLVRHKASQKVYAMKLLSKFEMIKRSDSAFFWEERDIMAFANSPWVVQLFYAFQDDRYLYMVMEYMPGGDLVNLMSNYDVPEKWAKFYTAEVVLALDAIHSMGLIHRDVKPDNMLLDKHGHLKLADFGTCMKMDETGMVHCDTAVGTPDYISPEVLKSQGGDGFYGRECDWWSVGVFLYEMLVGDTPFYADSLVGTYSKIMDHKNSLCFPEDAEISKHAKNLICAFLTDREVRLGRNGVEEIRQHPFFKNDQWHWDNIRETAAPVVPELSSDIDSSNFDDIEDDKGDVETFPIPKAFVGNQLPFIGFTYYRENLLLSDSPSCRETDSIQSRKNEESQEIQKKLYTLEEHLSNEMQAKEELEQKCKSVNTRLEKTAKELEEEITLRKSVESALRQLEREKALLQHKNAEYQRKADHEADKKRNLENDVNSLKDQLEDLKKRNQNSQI
T4 sequence (Q13464 17-535 limits assumed): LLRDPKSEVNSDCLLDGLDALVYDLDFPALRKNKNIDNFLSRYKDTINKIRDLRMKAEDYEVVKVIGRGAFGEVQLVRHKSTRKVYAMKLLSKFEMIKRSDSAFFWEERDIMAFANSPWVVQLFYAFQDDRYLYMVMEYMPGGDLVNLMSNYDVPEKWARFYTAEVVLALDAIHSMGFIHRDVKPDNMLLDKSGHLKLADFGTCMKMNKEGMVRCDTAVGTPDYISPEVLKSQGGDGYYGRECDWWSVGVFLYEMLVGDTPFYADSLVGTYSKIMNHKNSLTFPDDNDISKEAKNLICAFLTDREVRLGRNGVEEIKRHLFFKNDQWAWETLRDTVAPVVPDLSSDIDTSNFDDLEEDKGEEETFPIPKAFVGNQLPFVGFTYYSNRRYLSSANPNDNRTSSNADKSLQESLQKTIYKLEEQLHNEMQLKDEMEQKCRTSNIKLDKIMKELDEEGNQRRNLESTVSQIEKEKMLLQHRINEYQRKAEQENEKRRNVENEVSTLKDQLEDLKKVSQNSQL
T2 sequence (Q9Y243 whole entry): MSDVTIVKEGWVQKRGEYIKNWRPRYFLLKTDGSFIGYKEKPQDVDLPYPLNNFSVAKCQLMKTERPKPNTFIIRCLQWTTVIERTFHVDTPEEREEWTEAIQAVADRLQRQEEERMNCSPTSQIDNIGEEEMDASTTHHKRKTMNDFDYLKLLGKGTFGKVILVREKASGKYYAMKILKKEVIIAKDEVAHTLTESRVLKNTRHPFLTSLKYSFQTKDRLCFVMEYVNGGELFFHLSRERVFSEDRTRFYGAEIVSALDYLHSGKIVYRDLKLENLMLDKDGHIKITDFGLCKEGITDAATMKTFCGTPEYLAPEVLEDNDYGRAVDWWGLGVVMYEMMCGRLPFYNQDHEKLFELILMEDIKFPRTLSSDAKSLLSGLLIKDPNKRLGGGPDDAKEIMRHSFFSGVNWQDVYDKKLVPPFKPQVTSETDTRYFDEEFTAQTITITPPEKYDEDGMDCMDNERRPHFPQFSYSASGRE
T6 sequence (P27361 whole entry): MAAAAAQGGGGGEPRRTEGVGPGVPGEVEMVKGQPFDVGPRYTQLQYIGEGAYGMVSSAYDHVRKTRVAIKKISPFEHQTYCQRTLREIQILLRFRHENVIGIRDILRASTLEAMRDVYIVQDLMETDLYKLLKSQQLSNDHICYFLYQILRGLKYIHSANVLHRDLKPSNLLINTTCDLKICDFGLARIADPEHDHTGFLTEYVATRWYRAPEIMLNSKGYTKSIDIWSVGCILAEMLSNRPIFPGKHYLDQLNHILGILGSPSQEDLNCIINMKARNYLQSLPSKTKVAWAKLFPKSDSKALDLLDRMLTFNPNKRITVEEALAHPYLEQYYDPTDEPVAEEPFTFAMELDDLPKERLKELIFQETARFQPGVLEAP
T8 sequence (P28482 whole entry): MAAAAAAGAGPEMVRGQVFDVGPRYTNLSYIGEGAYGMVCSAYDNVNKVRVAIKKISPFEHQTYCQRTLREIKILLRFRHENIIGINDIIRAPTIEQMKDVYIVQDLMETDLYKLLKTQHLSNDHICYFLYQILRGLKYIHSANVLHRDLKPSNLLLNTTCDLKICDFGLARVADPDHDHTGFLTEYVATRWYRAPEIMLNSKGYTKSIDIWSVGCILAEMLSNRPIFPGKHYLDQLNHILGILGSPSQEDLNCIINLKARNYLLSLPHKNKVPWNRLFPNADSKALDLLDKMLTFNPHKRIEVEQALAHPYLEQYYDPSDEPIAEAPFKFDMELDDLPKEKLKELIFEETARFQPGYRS
T5 sequence (P51617 whole entry): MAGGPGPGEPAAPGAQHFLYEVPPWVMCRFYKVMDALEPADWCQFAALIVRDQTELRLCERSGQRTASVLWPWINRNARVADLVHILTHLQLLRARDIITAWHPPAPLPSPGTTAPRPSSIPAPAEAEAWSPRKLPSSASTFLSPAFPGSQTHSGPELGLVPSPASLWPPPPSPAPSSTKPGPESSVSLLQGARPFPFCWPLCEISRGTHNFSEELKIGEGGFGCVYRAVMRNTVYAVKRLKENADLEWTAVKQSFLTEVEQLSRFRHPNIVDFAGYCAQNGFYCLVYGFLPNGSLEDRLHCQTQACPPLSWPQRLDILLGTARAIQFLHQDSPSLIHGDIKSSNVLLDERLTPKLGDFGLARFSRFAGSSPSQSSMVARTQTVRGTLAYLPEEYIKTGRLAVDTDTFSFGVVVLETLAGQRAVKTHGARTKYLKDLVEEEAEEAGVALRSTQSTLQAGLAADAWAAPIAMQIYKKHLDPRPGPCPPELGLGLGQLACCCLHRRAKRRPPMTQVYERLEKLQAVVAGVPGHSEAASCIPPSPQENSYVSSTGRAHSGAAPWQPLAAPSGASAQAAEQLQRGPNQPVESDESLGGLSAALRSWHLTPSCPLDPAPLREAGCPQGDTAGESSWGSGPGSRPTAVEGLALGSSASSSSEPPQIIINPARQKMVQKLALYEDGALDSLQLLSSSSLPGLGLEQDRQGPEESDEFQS
T9 sequence (Q9HBH9 whole entry): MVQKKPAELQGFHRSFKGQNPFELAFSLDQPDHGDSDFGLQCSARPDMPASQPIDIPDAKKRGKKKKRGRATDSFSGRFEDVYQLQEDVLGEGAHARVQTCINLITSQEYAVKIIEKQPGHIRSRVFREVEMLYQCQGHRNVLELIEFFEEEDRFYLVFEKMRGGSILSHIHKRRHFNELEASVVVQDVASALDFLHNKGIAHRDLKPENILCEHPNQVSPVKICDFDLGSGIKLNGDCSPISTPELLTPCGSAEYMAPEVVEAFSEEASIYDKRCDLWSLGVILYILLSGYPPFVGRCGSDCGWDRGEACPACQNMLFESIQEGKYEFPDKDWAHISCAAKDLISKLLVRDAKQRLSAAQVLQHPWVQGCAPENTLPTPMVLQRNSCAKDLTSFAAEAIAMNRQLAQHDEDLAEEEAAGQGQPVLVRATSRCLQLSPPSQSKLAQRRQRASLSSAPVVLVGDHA

Row | SMILES | pIC50 (human neutrophils) | pKi (ROCK2; [5]) | pKi (ROCK2; average Ki, read-out: ROCK2 Ki) | concentration at 15 min [2] | pKi (Akt3 human enzyme; [6]) | pKi (Akt3 human enzyme; average Ki, read-out: Akt3 Ki) | pKi (p70S6K human enzyme; [7]) | pKi (p70S6K human enzyme; [8]) | pKi (ROCK1; Avg, 10 μM ATP) | pKi (ROCK1; average Ki) | IL-6, % (human monocytes) | also measured
1 | C[C@@H](N)[C@H]1CC[C@H](C(=O)Nc2ccncc2)CC1 [Compound Y-27632, reference compound] | 5.17 | – | – | – | – | – | – | – | – | – | – | log10AUC (Penh) ([1]; 30 μmol/kg/oral): 1.9942
2 | NC(=O)Cn1ccc2ccc(CN3CC[C@@H](Nc4cccc5cnccc45)C3)cc21 [Compound 2.058, (R)-2-(6-((3-(isoquinolin-5-ylamino)pyrrolidin-1-yl)methyl)-1H-indol-1-yl)acetamide] | – | 8.48 | 8.48 | 194 nM | 5.71 | 5.71 | 6.67 | 6.67 | 7.82 | 7.82 | 1.3% | –
3 | C[C@@H]1C[C@H]2[C@@H]3CCC4=CC(=O)C=C[C@]4(C)[C@@]3(F)[C@@H](O)C[C@]2(C)[C@@]1(O)C(=O)CO [Dexamethasone, dexamethasone, reference compound] | – | – | – | – | – | – | – | – | – | – | – | log10AUC (Penh) ([1]; 1 mg/kg/oral): 2.0216
4 | C#Cc1ccc(CN2CCCC(Nc3ccc4[nH]ncc4c3)C2)cc1 (stereo not shown) [Compound 1.034, N-(1-(4-ethynylbenzyl)piperidin-3-yl)-1H-indazol-5-amine] | 5.25 | 8.28 | – | – | – | – | – | – | 7.44 | – | – | Cell score at 1 μM (NIH/3T3 cells): 2
5 | OCCn1ccc2cc(CN3CC[C@@H](Nc4cccc5cnccc45)C3)ccc21 [Compound 2.066, (R)-2-(5-((3-(isoquinolin-5-ylamino)pyrrolidin-1-yl)methyl)-1H-indol-1-yl)ethanol] | – | 8.64 | 8.64 | – | 5.60 | 5.60 | 6.43 | 6.43 | 7.99 | 7.99 | – | activity at 1 µM (IRAK1; 1 μM test compound, read-out: IRAK1 Percent inhibition, 1 μM): 74%; activity at 10 µM (IRAK1; 10 μM test compound, read-out: IRAK1 Percent inhibition, 10 μM): 32%; activity at 1 µM (ERK1; 1 μM test compound, 10 μM ATP, read-out: ERK1 Percent inhibition, 1 μM): 52%; inhibition at 1 µM (ERK1; 1 μM, read-out: ERK1 inhibited): ~50%; activity at 10 µM (ERK1; 10 μM test compound, 10 μM ATP, read-out: ERK1 Percent inhibition, 10 μM): 15%; GCK Percent inhibition, 1 μM (GCK): 39%; activity at 10 µM (GCK; 10 μM test compound, 10 μM ATP, read-out: GCK Percent inhibition, 10 μM): 7%; ERK2 Percent inhibition, 1 μM (ERK2): 50%; ERK2 Percent inhibition, 10 μM (ERK2): 12%; inhibition at 1 µM (ERK2; 1 μM, read-out: ERK2 inhibited): ~50%; log10AUC (Penh) ([1]; 0.5 μmol/kg/intratracheal): 2.0248; airway hyperreactivity ([1]; intratracheal once a day during days 27 to 31): prevention of airway hyperreactivity; activity at 1 µM (Mnk2; 1 μM test compound, read-out: Mnk2 Percent inhibition, 1 μM): 99%; activity at 10 µM (Mnk2; 10 μM test compound, read-out: Mnk2 Percent inhibition, 10 μM): 54%
6 | CSc1ccc(CN2CCC[C@@H](Nc3ccc4[nH]ncc4c3)C2)cc1 [Compound 1.074, (R)-N-(1-(4-(methylthio)benzyl)piperidin-3-yl)-1H-indazol-5-amine] | – | 8.39 | 8.39 | 506 nM | 6.36 | 6.36 | 6.26 | 6.26 | 7.40 | 7.40 | 96.0% | Percent of PDGF Induced Proliferation at 1 μM Avg ([3]; 1 μM test compound): 79.9%; Percent of PDGF Induced Proliferation at 10 μM Avg ([3]; 10 μM test compound): 46.9%; Vz_F ([4]; mean n = 3): 45.7 L/kg; AUC(0-t) ([4]; male, CD Sprague Dawley, mean n = 3): 1.17 µM·h; Cmax ([4]; male, CD Sprague Dawley, mean n = 3, read-out: Cmax): 735 nM; Tmax ([4]; male, CD Sprague Dawley, mean n = 3, read-out: Tmax): 25.2 min
